Test results: ChEMBL document CHEMBL1201861, “Genomics of Drug Sensitity in Cancer screening data, Wellcome Trust Sanger Institute”
Where a name gives a salt, the structure may show the parent alone.

What was measured:
MKN-7 = test: cells; format: functional, cell-based, Homo sapiens;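 further: growth inhibition of MKN-7 cells, read out with a cell viability assay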
Description: SANGER: Inhibition of human MKN7 cell growth in a cell viability assay.

BC-3 = test: cells; format: functional, cell-based, Homo sapiens;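 further: cell viability assay measuring growth inhibition of human BC-3 cells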
Description: SANGER: Inhibition of human BC-3 cell growth in a cell viability assay.

NCI-H520 = test: cells; format: functional, cell-based, Homo sapiens;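 further: growth inhibition of NCI-H520 cells, measured by a cell viability assay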
Description: SANGER: Inhibition of human NCI-H520 cell growth in a cell viability assay.

PC-3 = test: cells; format: functional, cell-based, Homo sapiens;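 further: cell viability assay measuring growth inhibition of PC-3 cells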
Description: SANGER: Inhibition of human PC-3 cell growth in a cell viability assay.

SW837 = test: cells; format: functional, cell-based, Homo sapiens;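 further: growth inhibition of SW837 cells, determined with a cell viability assay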
Description: SANGER: Inhibition of human SW837 cell growth in a cell viability assay.

DoTc2-4510 = test: cells; format: functional, cell-based, Homo sapiens
GAMG = test: cells; format: functional, cell-based, Homo sapiens;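 further: cell growth inhibition measured by a viability assay in the GAMG human cell line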
Description: SANGER: Inhibition of human GAMG cell growth in a cell viability assay.

ChaGo-K-1 = test: cells; format: functional, cell-based, Homo sapiens;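 further: growth inhibition of ChaGo-K-1 cells, read out with a cell viability assay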
Description: SANGER: Inhibition of human ChaGo-K-1 cell growth in a cell viability assay.

SUP-T1 = test: cells; format: functional, cell-based, Homo sapiens;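 further: growth inhibition of human SUP-T1 cells, read out as cell viability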
Description: SANGER: Inhibition of human SUP-T1 cell growth in a cell viability assay.

Capan-2 = test: cells; format: functional, cell-based, Homo sapiens;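 further: Capan-2 cell growth inhibition, read out with a viability assay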
Description: SANGER: Inhibition of human Capan-2 cell growth in a cell viability assay.

MDA-MB-175-VII = test: cells; format: functional, cell-based, Homo sapiens
KYSE-410 = test: cells; format: functional, cell-based, Homo sapiens;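 further: growth inhibition of KYSE-410 cells, measured through a cell viability readout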
Description: SANGER: Inhibition of human KYSE-410 cell growth in a cell viability assay.

SF-295 = test: cells; format: functional, cell-based, Homo sapiens;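 further: growth inhibition of SF-295 cells, read out with a cell viability assay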
Description: SANGER: Inhibition of human SF295 cell growth in a cell viability assay.

AN3-CA = test: cells; format: functional, cell-based, Homo sapiens;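 further: growth inhibition of human AN3-CA cells measured by a cell viability assay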
Description: SANGER: Inhibition of human AN3-CA cell growth in a cell viability assay.

G-401 = test: cells; format: functional, cell-based, Homo sapiens
Description: SANGER: Inhibition of human G-401 cell growth in a cell viability assay.

MeWo = test: cells; format: functional, cell-based, Homo sapiens;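 further: growth inhibition of MeWo cells, determined by a cell viability readout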
Description: SANGER: Inhibition of human Mewo cell growth in a cell viability assay.

ME-180 = test: cells; format: functional, cell-based, Homo sapiens;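 further: cell viability assay measuring growth inhibition of ME-180 cells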
Description: SANGER: Inhibition of human ME-180 cell growth in a cell viability assay.

MKN-45 = test: cells; format: functional, cell-based, Homo sapiens;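 further: growth inhibition of human MKN-45 cells, measured with a cell viability assay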
Description: SANGER: Inhibition of human MKN45 cell growth in a cell viability assay.

Raji = test: cells; format: functional, cell-based, Homo sapiens;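 further: cell viability assay measuring inhibition of Raji cell growth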
Description: SANGER: Inhibition of human Raji cell growth in a cell viability assay.

LOUCY = test: cells; format: functional, cell-based, Homo sapiens;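 further: growth inhibition of human LOUCY cells, read out with a cell viability assay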
Description: SANGER: Inhibition of human LOUCY cell growth in a cell viability assay.

KYSE-140 = test: cells; format: functional, cell-based, Homo sapiens;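 further: cell viability assay measuring growth inhibition in human KYSE-140 cells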
Description: SANGER: Inhibition of human KYSE-140 cell growth in a cell viability assay.

G-361 = test: cells; format: functional, cell-based, Homo sapiens
HCC1954 = test: cells; format: functional, cell-based, Homo sapiens;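 further: growth inhibition of human HCC1954 cells, read out with a cell viability assay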
Description: SANGER: Inhibition of human HCC1954 cell growth in a cell viability assay.

MDA-MB-361 = test: cells; format: functional, cell-based, Homo sapiens
NCI-H2342 = test: cells; format: functional, cell-based, Homo sapiens;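 further: growth inhibition of the cancer cell line, determined with a cell viability assay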
Description: SANGER: Inhibition of human NCI-H2342 cell growth in a cell viability assay.

NCI-H2171 = test: cells; format: functional, cell-based, Homo sapiens;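 further: growth inhibition of human NCI-H2171 cells, read out by a cell viability assay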
Description: SANGER: Inhibition of human NCI-H2171 cell growth in a cell viability assay.

HCC1937 = test: cells; format: functional, cell-based, Homo sapiens;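 further: growth inhibition measured with a cell viability read-out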
Description: SANGER: Inhibition of human HCC1937 cell growth in a cell viability assay.

NCI-H748 = test: cells; format: functional, cell-based, Homo sapiens;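 further: growth inhibition of NCI-H748 cells, measured by a cell viability assay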
Description: SANGER: Inhibition of human NCI-H748 cell growth in a cell viability assay.

BL-41 = test: cells; format: functional, cell-based, Homo sapiens;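 further: growth inhibition of human BL-41 cells, read out with a cell viability assay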
Description: SANGER: Inhibition of human BL-41 cell growth in a cell viability assay.

WM-115 = test: cells; format: functional, cell-based, Homo sapiens
Description: SANGER: Inhibition of human WM-115 cell growth in a cell viability assay.

A204 = test: cells; format: functional, cell-based, Homo sapiens;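 further: growth inhibition of human A204 cells, read out with a cell viability assay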
Description: SANGER: Inhibition of human A204 cell growth in a cell viability assay.

SW13 = test: cells; format: functional, cell-based, Homo sapiens;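 further: IC50 is inhibition of SW13 cell growth, read out with a cell viability assay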
Description: SANGER: Inhibition of human SW13 cell growth in a cell viability assay.

COLO-679 = test: cells; format: functional, cell-based, Homo sapiens
Description: SANGER: Inhibition of human COLO-679 cell growth in a cell viability assay.

NCI-H2196 = test: cells; format: functional, cell-based, Homo sapiens;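 further: cell viability assay used as the readout of growth inhibition in NCI-H2196 cells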
Description: SANGER: Inhibition of human NCI-H2196 cell growth in a cell viability assay.

RL = test: cells; format: functional, cell-based, Homo sapiens
Description: SANGER: Inhibition of human RL cell growth in a cell viability assay.

KU-19-19 = test: cells; format: functional, cell-based, Homo sapiens
Description: SANGER: Inhibition of human KU-19-19 cell growth in a cell viability assay.

MONO-MAC-6 = test: cells; format: functional, cell-based, Homo sapiens;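 further: cell viability assay measuring growth inhibition of human MONO-MAC-6 cells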
Description: SANGER: Inhibition of human MONO-MAC-6 cell growth in a cell viability assay.

NUGC-3 = test: cells; format: functional, cell-based, Homo sapiens;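 further: growth inhibition of human NUGC-3 cells, read out with a cell viability assay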
Description: SANGER: Inhibition of human NUGC-3 cell growth in a cell viability assay.

ST486 = test: SANGER: Inhibition of human ST486 cell growth in a cell viability assay.; format: functional, cell-based
BHY = test: cells; format: functional, cell-based, Homo sapiens;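 further: cell growth inhibition read out by a viability assay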
Description: SANGER: Inhibition of human BHY cell growth in a cell viability assay.

KP-4 = test: cells; format: functional, cell-based, Homo sapiens;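 further: human KP-4 cells, with growth inhibition read out through a cell viability assay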
Description: SANGER: Inhibition of human KP-4 cell growth in a cell viability assay.

OPM-2 = test: cells; format: functional, cell-based, Homo sapiens;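 further: growth of OPM-2 cells measured with a viability assay, IC50 for suppression of proliferation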
Description: SANGER: Inhibition of human OPM-2 cell growth in a cell viability assay.

786-0 = test: cells; format: functional, cell-based, Homo sapiens
Description: SANGER: Inhibition of human 786-0 cell growth in a cell viability assay.

JEG-3 = test: cells; format: functional, cell-based, Homo sapiens;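 further: growth inhibition of human JEG-3 cells, read out with a cell viability assay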
Description: SANGER: Inhibition of human JEG-3 cell growth in a cell viability assay.

NCI-H1882 = test: cells; format: functional, cell-based, Homo sapiens;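 further: growth inhibition of the cell line, determined with a viability assay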
Description: SANGER: Inhibition of human NCI-H1882 cell growth in a cell viability assay.

T84 = test: cells; format: functional, cell-based, Homo sapiens;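 further: growth inhibition measured with a cell viability readout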
Description: SANGER: Inhibition of human T84 cell growth in a cell viability assay.

EPLC-272H = test: cells; format: functional, cell-based, Homo sapiens; settings: Homo sapiens, EPLC-272H
Description: SANGER: Inhibition of human EPLC-272H cell growth in a cell viability assay.

NCI-H1048 = test: cells; format: functional, cell-based, Homo sapiens; settings: Homo sapiens, NCI-H1048;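 further: growth inhibition of human NCI-H1048 cells, read out with a cell viability assay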
Description: SANGER: Inhibition of human NCI-H1048 cell growth in a cell viability assay.

OC-314 = test: cells; format: functional, cell-based, Homo sapiens; settings: Homo sapiens, OC-314
Description: SANGER: Inhibition of human OC-314 cell growth in a cell viability assay.

`COC1=CC(c2cc3ccccc3[nH]2)=N/C1=C\c1[nH]c(C)cc1C` [OBATOCLAX MESYLATE] gave an IC50 (MKN-7; Homo sapiens, MKN-7) of 1.89 µM, an IC50 (BC-3; Homo sapiens, BC-3) of 2.37 µM and an IC50 (NCI-H520; Homo sapiens, NCI-H520) of 0.129 µM. The IC50 (PC-3; Homo sapiens, PC-3) was 1.75 µM, the IC50 (SW837; Homo sapiens, SW837) was 0.467 µM and the IC50 (DoTc2-4510; Homo sapiens, DoTc2-4510) was 0.0339 µM. The IC50 (GAMG; Homo sapiens, GAMG) was 0.058 µM, the IC50 (ChaGo-K-1; Homo sapiens, ChaGo-K-1) was 0.612 µM and the IC50 (SUP-T1; Homo sapiens, SUP-T1) was 0.0295 µM. It also gave an IC50 (Capan-2; Homo sapiens, Capan-2) of 0.666 µM, an IC50 (MDA-MB-175-VII; Homo sapiens, MDA-MB-175-VII) of 1.69 µM and an IC50 (KYSE-410; Homo sapiens, KYSE-410) of 0.098 µM. For the same compound, the IC50 (SF-295; Homo sapiens, SF-295) was 0.34 µM, the IC50 (AN3-CA; Homo sapiens, AN3-CA) was 0.156 µM and the IC50 (G-401; Homo sapiens, G-401) was 0.0309 µM. The IC50 (MeWo; Homo sapiens, MeWo) was 4.96 µM, the IC50 (ME-180; Homo sapiens, ME-180) was 1.44 µM and the IC50 (MKN-45; Homo sapiens, MKN-45) was 1.99 µM. The IC50 (Raji; Homo sapiens, Raji) was 1.02 µM, the IC50 (LOUCY; Homo sapiens, LOUCY) was under 0.0625 µM and the IC50 (KYSE-140; Homo sapiens, KYSE-140) was under 0.0625 µM. For the same compound, the IC50 (G-361; Homo sapiens, G-361) was under 0.0625 µM, the IC50 (HCC1954; Homo sapiens, HCC1954) was 5.86 µM and the IC50 (MDA-MB-361; Homo sapiens, MDA-MB-361) was 0.998 µM. It also gave an IC50 (NCI-H2342; Homo sapiens, NCI-H2342) of 0.0512 µM, an IC50 (NCI-H2171; Homo sapiens, NCI-H2171) of 0.85 µM and an IC50 (HCC1937; Homo sapiens, HCC1937) of 0.464 µM. It also gave an IC50 (NCI-H748; Homo sapiens, NCI-H748) of 10.6 µM, an IC50 (BL-41; Homo sapiens, BL-41) of 0.0622 µM and an IC50 (WM-115; Homo sapiens, WM-115) of 4.51 µM. The IC50 (A204; Homo sapiens, A204) was 1.6 µM, the IC50 (SW13; Homo sapiens, SW13) was 0.406 µM and the IC50 (COLO-679; Homo sapiens, COLO-679) was under 0.0625 µM. The IC50 (NCI-H2196; Homo sapiens, NCI-H2196) was 3.35 µM, the IC50 (RL; Homo sapiens, RL) was over 16 µM and the IC50 (KU-19-19; Homo sapiens, KU-19-19) was 0.646 µM. The IC50 (MONO-MAC-6; Homo sapiens, MONO-MAC-6) was 0.438 µM, the IC50 (NUGC-3; Homo sapiens, NUGC-3) was 0.0305 µM and the IC50 (ST486; Homo sapiens, ST486) was under 0.0625 µM. The IC50 (BHY; Homo sapiens, BHY) was under 0.0625 µM, the IC50 (KP-4; Homo sapiens, KP-4) was 0.696 µM and the IC50 (OPM-2; Homo sapiens, OPM-2) was 0.509 µM. For the same compound, the IC50 (786-0; Homo sapiens) was under 0.0625 µM, the IC50 (JEG-3; Homo sapiens, JEG-3) was 1.5 µM and the IC50 (NCI-H1882; Homo sapiens, NCI-H1882) was 4.51 µM. For the same compound, the IC50 (T84; Homo sapiens, T84) was 0.212 µM.

With `Cn1cnc2c(F)c(Nc3ccc(Br)cc3Cl)c(C(=O)NOCCO)cc21` [SELUMETINIB] the IC50 (MKN-7; Homo sapiens, MKN-7) was over 4 µM, the IC50 (NCI-H520; Homo sapiens, NCI-H520) was over 4 µM and the IC50 (PC-3; Homo sapiens, PC-3) was over 4 µM. For the same compound, the IC50 (DoTc2-4510; Homo sapiens, DoTc2-4510) was over 4 µM, the IC50 (GAMG; Homo sapiens, GAMG) was over 4 µM and the IC50 (ChaGo-K-1; Homo sapiens, ChaGo-K-1) was over 4 µM. It also gave an IC50 (Capan-2; Homo sapiens, Capan-2) of over 4 µM, an IC50 (MDA-MB-175-VII; Homo sapiens, MDA-MB-175-VII) of over 4 µM and an IC50 (KYSE-410; Homo sapiens, KYSE-410) of over 4 µM. For the same compound, the IC50 (SF-295; Homo sapiens, SF-295) was over 4 µM, the IC50 (AN3-CA; Homo sapiens, AN3-CA) was over 4 µM and the IC50 (G-401; Homo sapiens, G-401) was over 4 µM. It also gave an IC50 (MeWo; Homo sapiens, MeWo) of 0.521 µM, an IC50 (EPLC-272H) of over 4 µM and an IC50 (ME-180; Homo sapiens, ME-180) of over 4 µM. For the same compound, the IC50 (KYSE-140; Homo sapiens, KYSE-140) was over 4 µM, the IC50 (HCC1954; Homo sapiens, HCC1954) was over 4 µM and the IC50 (MDA-MB-361; Homo sapiens, MDA-MB-361) was over 4 µM. The IC50 (NCI-H2342; Homo sapiens, NCI-H2342) was over 4 µM, the IC50 (HCC1937; Homo sapiens, HCC1937) was over 4 µM and the IC50 (WM-115; Homo sapiens, WM-115) was 0.268 µM. It also gave an IC50 (A204; Homo sapiens, A204) of 1.52 µM, an IC50 (COLO-679; Homo sapiens, COLO-679) of 0.341 µM and an IC50 (NCI-H1048) of over 4 µM. For the same compound, the IC50 (KU-19-19; Homo sapiens, KU-19-19) was 3.42 µM, the IC50 (NUGC-3; Homo sapiens, NUGC-3) was 1.2 µM and the IC50 (BHY; Homo sapiens, BHY) was 1.81 µM. The IC50 (OC-314) was over 4 µM, the IC50 (786-0; Homo sapiens) was over 4 µM and the IC50 (JEG-3; Homo sapiens, JEG-3) was over 4 µM. For the same compound, the IC50 (T84; Homo sapiens, T84) was over 4 µM.

BLEOMYCIN was tested, and the IC50 (MKN-7; mkn-7) was 66.5 µM, the IC50 (BC-3; bc-3) was 0.521 µM and the IC50 (NCI-H520; nci-h520) was 16.1 µM. It also gave an IC50 (PC-3; pc-3) of 13.3 µM, an IC50 (SW837; sw837) of 1.61 µM and an IC50 (DoTc2-4510; dotc2-4510) of 0.378 µM. For the same compound, the IC50 (GAMG; gamg) was 0.289 µM, the IC50 (ChaGo-K-1; chago-k-1) was 16.4 µM and the IC50 (SUP-T1; sup-t1) was 0.000251 µM. The IC50 (Capan-2; capan-2) was 24.2 µM, the IC50 (MDA-MB-175-VII; mda-mb-175-vii) was 1.51 µM and the IC50 (KYSE-410; kyse-410) was 8.15 µM. For the same compound, the IC50 (SF-295; sf-295) was 0.0214 µM, the IC50 (AN3-CA; an3-ca) was 2.55 µM and the IC50 (G-401; g-401) was 3.29 µM. It also gave an IC50 (MeWo; mewo) of 148 µM, an IC50 (ME-180; me-180) of 40.9 µM and an IC50 (MKN-45; mkn-45) of 0.0248 µM. The IC50 (Raji; raji) was 1.85 µM, the IC50 (LOUCY; loucy) was 0.00993 µM and the IC50 (KYSE-140; kyse-140) was 3.9 µM. For the same compound, the IC50 (G-361; g-361) was 0.0883 µM, the IC50 (HCC1954; hcc1954) was 84.2 µM and the IC50 (MDA-MB-361; mda-mb-361) was 0.719 µM. The IC50 (NCI-H2342; nci-h2342) was 0.0138 µM, the IC50 (NCI-H2171; nci-h2171) was 1420 µM and the IC50 (HCC1937; hcc1937) was 0.000254 µM. The IC50 (NCI-H748; nci-h748) was 75.2 µM, the IC50 (BL-41; bl-41) was 14.2 µM and the IC50 (WM-115; wm-115) was 7.09 µM. It also gave an IC50 (A204; a204) of 0.2 µM, an IC50 (SW13; sw13) of 0.0816 µM and an IC50 (COLO-679; colo-679) of 2.66 µM. The IC50 (NCI-H2196; nci-h2196) was 22.8 µM, the IC50 (RL; rl) was 2270 µM and the IC50 (KU-19-19; ku-19-19) was 525 µM. It also gave an IC50 (MONO-MAC-6; mono-mac-6) of 4.59 µM, an IC50 (NUGC-3; nugc-3) of 1.13 µM and an IC50 (ST486; st486) of 6.39 µM. For the same compound, the IC50 (BHY; bhy) was 1.83 µM, the IC50 (KP-4; kp-4) was 2.17 µM and the IC50 (OPM-2; opm-2) was 104 µM. The IC50 (786-0) was 0.0808 µM, the IC50 (JEG-3; jeg-3) was 8.55 µM and the IC50 (NCI-H1882; nci-h1882) was 11.5 µM. For the same compound, the IC50 (T84; t84) was 13.5 µM.
